Results from ChEMBL document CHEMBL4020788, “Synthesis, SAR and molecular docking studies of benzo[d]thiazole-hydrazones as potential antibacterial and antifungal agents” (2017).
Calls of active or inactive are those of the source. No cut-off for these calls is given here.

Assays:
Format in all cases: functional
[1] = system: Staphylococcus aureus; experiment: Antibacterial activity against Staphylococcus aureus at 25 ug/ml after 24 hrs by agar well diffusion method; details: for zone of inhibition at 25 µg/mL: read-out: DIZ
[2] = system: Staphylococcus aureus; experiment: Antibacterial activity against Staphylococcus aureus at 50 ug/ml after 24 hrs by agar well diffusion method; details: for zone of inhibition at 50 µg/mL: read-out: DIZ
[3] = system: Staphylococcus aureus; experiment: Antibacterial activity against Staphylococcus aureus at 75 ug/ml after 24 hrs by agar well diffusion method; details: for zone of inhibition at 75 µg/mL: read-out: DIZ
[4] = system: Staphylococcus aureus; experiment: Antibacterial activity against Staphylococcus aureus at 100 ug/ml after 24 hrs by agar well diffusion method; details: for zone of inhibition at 100 µg/mL: read-out: DIZ
[5] = system: Bacillus subtilis; experiment: Antibacterial activity against Bacillus subtilis at 25 ug/ml after 24 hrs by agar well diffusion method; details: for zone of inhibition at 25 µg/mL: read-out: DIZ
[6] = system: Bacillus subtilis; experiment: Antibacterial activity against Bacillus subtilis at 50 ug/ml after 24 hrs by agar well diffusion method; details: read-out: DIZ
[7] = system: Bacillus subtilis; experiment: Antibacterial activity against Bacillus subtilis at 75 ug/ml after 24 hrs by agar well diffusion method; details: read-out: DIZ
[8] = system: Bacillus subtilis; experiment: Antibacterial activity against Bacillus subtilis at 100 ug/ml after 24 hrs by agar well diffusion method; details: read-out: DIZ
[9] = system: Escherichia coli; experiment: Antibacterial activity against Escherichia coli at 25 ug/ml after 24 hrs by agar well diffusion method; details: read-out: DIZ
[10] = system: Escherichia coli; experiment: Antibacterial activity against Escherichia coli at 50 ug/ml after 24 hrs by agar well diffusion method; details: read-out: DIZ
[11] = system: Escherichia coli; experiment: Antibacterial activity against Escherichia coli at 75 ug/ml after 24 hrs by agar well diffusion method; details: read-out: DIZ
[12] = system: Escherichia coli; experiment: Antibacterial activity against Escherichia coli at 100 ug/ml after 24 hrs by agar well diffusion method; details: read-out: DIZ
[13] = system: Klebsiella pneumoniae; experiment: Antibacterial activity against Klebsiella pneumoniae at 25 ug/ml after 24 hrs by agar well diffusion method; details: for zone of inhibition at 25 µg/mL: read-out: DIZ
[14] = system: Klebsiella pneumoniae; experiment: Antibacterial activity against Klebsiella pneumoniae at 50 ug/ml after 24 hrs by agar well diffusion method; details: for zone of inhibition at 50 µg/mL: read-out: DIZ
[15] = system: Klebsiella pneumoniae; experiment: Antibacterial activity against Klebsiella pneumoniae at 75 ug/ml after 24 hrs by agar well diffusion method; details: read-out: DIZ
[16] = system: Klebsiella pneumoniae; experiment: Antibacterial activity against Klebsiella pneumoniae at 100 ug/ml after 24 hrs by agar well diffusion method; details: read-out: DIZ
[17] = system: Staphylococcus aureus; experiment: Antibacterial activity against methicillin resistant Staphylococcus aureus MRSA090 at 25 ug/ml after 24 hrs by agar well diffusion method; details: for zone of inhibition at 25 µg/mL: MRSA090, 24 h, read-out: DIZ
[18] = system: Staphylococcus aureus; experiment: Antibacterial activity against methicillin resistant Staphylococcus aureus MRSA090 at 50 ug/ml after 24 hrs by agar well diffusion method; details: for zone of inhibition at 50 µg/mL: MRSA090, 24 h, read-out: DIZ
[19] = system: Staphylococcus aureus; experiment: Antibacterial activity against methicillin resistant Staphylococcus aureus MRSA090 at 75 ug/ml after 24 hrs by agar well diffusion method; details: for zone of inhibition at 75 µg/mL: MRSA090, 24 h, read-out: DIZ
[20] = system: Staphylococcus aureus; experiment: Antibacterial activity against methicillin resistant Staphylococcus aureus MRSA090 at 100 ug/ml after 24 hrs by agar well diffusion method; details: for zone of inhibition at 100 µg/mL: MRSA090, 24 h, read-out: DIZ
[21] = system: Aspergillus niger; experiment: Antifungal activity against Aspergillus niger at 25 ug/ml after 48 hrs by agar well diffusion method; details: for zone of inhibition at 25 µg/mL: read-out: DIZ
[22] = system: Aspergillus niger; experiment: Antifungal activity against Aspergillus niger at 50 ug/ml after 48 hrs by agar well diffusion method; details: for zone of inhibition at 50 µg/mL: read-out: DIZ
[23] = system: Aspergillus niger; experiment: Antifungal activity against Aspergillus niger at 75 ug/ml after 48 hrs by agar well diffusion method; details: for zone of inhibition at 75 µg/mL: read-out: DIZ
[24] = system: Aspergillus niger; experiment: Antifungal activity against Aspergillus niger at 100 ug/ml after 48 hrs by agar well diffusion method; details: for zone of inhibition at 100 µg/mL: read-out: DIZ
[25] = system: Fusarium verticillioides; experiment: Antifungal activity against Fusarium moniliforme at 25 ug/ml after 48 hrs by agar well diffusion method
[26] = system: Fusarium verticillioides; experiment: Antifungal activity against Fusarium moniliforme at 50 ug/ml after 48 hrs by agar well diffusion method
[27] = system: Fusarium verticillioides; experiment: Antifungal activity against Fusarium moniliforme at 75 ug/ml after 48 hrs by agar well diffusion method; details: for zone of inhibition at 75 µg/mL: read-out: DIZ
[28] = system: Fusarium verticillioides; experiment: Antifungal activity against Fusarium moniliforme at 100 ug/ml after 48 hrs by agar well diffusion method; details: for zone of inhibition at 100 µg/mL: read-out: DIZ
[29] = system: Fusarium oxysporum; experiment: Antifungal activity against Fusarium oxysporum at 25 ug/ml after 48 hrs by agar well diffusion method; details: read-out: DIZ
[30] = system: Fusarium oxysporum; experiment: Antifungal activity against Fusarium oxysporum at 50 ug/ml after 48 hrs by agar well diffusion method; details: read-out: DIZ
[31] = system: Fusarium oxysporum; experiment: Antifungal activity against Fusarium oxysporum at 75 ug/ml after 48 hrs by agar well diffusion method; details: read-out: DIZ
[32] = system: Fusarium oxysporum; experiment: Antifungal activity against Fusarium oxysporum at 100 ug/ml after 48 hrs by agar well diffusion method; details: read-out: DIZ

Cc1cccc2nc(N/N=C/c3ccc(F)cc3)sc12
zone of inhibition at 25 µg/mL [1]: 9 mm | zone of inhibition at 50 µg/mL [2]: 12 mm | zone of inhibition at 75 µg/mL [3]: 16 mm | zone of inhibition at 100 µg/mL [4]: 18 mm | zone of inhibition at 25 µg/mL [5]: 6 mm | zone of inhibition at 50 µg/mL [6]: 9 mm | zone of inhibition at 75 µg/mL [7]: 12 mm | zone of inhibition at 100 µg/mL [8]: 14 mm | zone of inhibition at 25 µg/mL [9]: 5 mm | zone of inhibition at 50 µg/mL [10]: 9 mm | zone of inhibition at 75 µg/mL [11]: 14 mm | zone of inhibition at 100 µg/mL [12]: 17 mm | zone of inhibition at 25 µg/mL [13]: 6 mm | zone of inhibition at 50 µg/mL [14]: 11 mm | zone of inhibition at 75 µg/mL [15]: 16 mm | zone of inhibition at 100 µg/mL [16]: 19 mm | zone of inhibition at 25 µg/mL [17]: 8 mm | zone of inhibition at 50 µg/mL [18]: 12 mm | zone of inhibition at 75 µg/mL [19]: 16 mm | zone of inhibition at 100 µg/mL [20]: 19 mm | zone of inhibition at 25 µg/mL [21]: 10 mm | zone of inhibition at 50 µg/mL [22]: 13 mm | zone of inhibition at 75 µg/mL [23]: 18 mm | zone of inhibition at 100 µg/mL [24]: 22 mm | zone of inhibition at 25 µg/mL ([25]; read-out: DIZ): 14 mm | zone of inhibition at 50 µg/mL ([26]; read-out: DIZ): 18 mm | zone of inhibition at 75 µg/mL [27]: 21 mm | zone of inhibition at 100 µg/mL [28]: 30 mm | zone of inhibition at 25 µg/mL [29]: 10 mm | zone of inhibition at 50 µg/mL [30]: 13 mm | zone of inhibition at 75 µg/mL [31]: 18 mm | zone of inhibition at 100 µg/mL [32]: 21 mm

Cc1cccc2nc(N/N=C/c3ccc([N+](=O)[O-])cc3)sc12
zone of inhibition at 25 µg/mL [1]: 7 mm | zone of inhibition at 50 µg/mL [2]: 9 mm | zone of inhibition at 75 µg/mL [3]: 12 mm | zone of inhibition at 100 µg/mL [4]: 14 mm | diameter of the inhibition zone (DIZ) [5]: inactive | zone of inhibition at 50 µg/mL [6]: 4 mm | zone of inhibition at 75 µg/mL [7]: 8 mm | zone of inhibition at 100 µg/mL [8]: 11 mm | zone of inhibition at 25 µg/mL [9]: 4 mm | zone of inhibition at 50 µg/mL [10]: 18 mm | zone of inhibition at 75 µg/mL [11]: 11 mm | zone of inhibition at 100 µg/mL [12]: 14 mm | zone of inhibition at 25 µg/mL [13]: 7 mm | zone of inhibition at 50 µg/mL [14]: 11 mm | zone of inhibition at 75 µg/mL [15]: 14 mm | zone of inhibition at 100 µg/mL [16]: 16 mm | zone of inhibition at 25 µg/mL [17]: 3 mm | zone of inhibition at 50 µg/mL [18]: 7 mm | zone of inhibition at 75 µg/mL [19]: 10 mm | zone of inhibition at 100 µg/mL [20]: 16 mm | zone of inhibition at 25 µg/mL [21]: 6 mm | zone of inhibition at 50 µg/mL [22]: 13 mm | zone of inhibition at 75 µg/mL [23]: 17 mm | zone of inhibition at 100 µg/mL [24]: 21 mm | diameter of the inhibition zone (DIZ) [25]: inactive | diameter of the inhibition zone (DIZ) [26]: inactive | zone of inhibition at 75 µg/mL [27]: 4 mm | zone of inhibition at 100 µg/mL [28]: 8 mm | zone of inhibition at 25 µg/mL [29]: 6 mm | zone of inhibition at 50 µg/mL [30]: 10 mm | zone of inhibition at 75 µg/mL [31]: 14 mm | zone of inhibition at 100 µg/mL [32]: 21 mm

Cc1cccc2nc(N/N=C/c3ccccc3)sc12
diameter of the inhibition zone (DIZ) [1]: inactive | diameter of the inhibition zone (DIZ) [2]: inactive | diameter of the inhibition zone (DIZ) [3]: inactive | diameter of the inhibition zone (DIZ) [4]: inactive | zone of inhibition at 25 µg/mL [5]: 5 mm | zone of inhibition at 50 µg/mL [6]: 7 mm | zone of inhibition at 75 µg/mL [7]: 11 mm | zone of inhibition at 100 µg/mL [8]: 13 mm | zone of inhibition at 25 µg/mL [9]: 9 mm | zone of inhibition at 50 µg/mL [10]: 11 mm | zone of inhibition at 75 µg/mL [11]: 13 mm | zone of inhibition at 100 µg/mL [12]: 15 mm | diameter of the inhibition zone (DIZ) [13]: inactive | diameter of the inhibition zone (DIZ) [14]: inactive | zone of inhibition at 75 µg/mL [15]: 7 mm | zone of inhibition at 100 µg/mL [16]: 10 mm | diameter of the inhibition zone (DIZ) [17]: inactive | diameter of the inhibition zone (DIZ) [18]: inactive | diameter of the inhibition zone (DIZ) [19]: inactive | diameter of the inhibition zone (DIZ) [20]: inactive | diameter of the inhibition zone (DIZ) [21]: inactive | diameter of the inhibition zone (DIZ) [22]: inactive | diameter of the inhibition zone (DIZ) [23]: inactive | diameter of the inhibition zone (DIZ) [24]: inactive | diameter of the inhibition zone (DIZ) [25]: inactive | diameter of the inhibition zone (DIZ) [26]: inactive | diameter of the inhibition zone (DIZ) [27]: inactive | diameter of the inhibition zone (DIZ) [28]: inactive | zone of inhibition at 25 µg/mL [29]: 4 mm | zone of inhibition at 50 µg/mL [30]: 8 mm | zone of inhibition at 75 µg/mL [31]: 13 mm | zone of inhibition at 100 µg/mL [32]: 16 mm
